This passage reports EC50 results from patent US12037333B2, “Pyridopyrazine and pyridotriazine inhibitors of influenza virus replication” (priority 2018, dated 2024).

The structures appear in SMILES notation. Where only a bound is given, the exact number is not on record here.

Broadly, the EC50 is the midpoint of the concentration-response curve. The low end stands for higher potency in that assay, the high end for lower potency in that assay.

The first experiment relates to Influenza type B (cell culture adapted strain B/Lee/40, ATCC VR-1535). Description: Influenza antiviral assay: inhibition of virus-induced cytopathic effects (CPE) in MDCK cells, XTT dye reduction. The conditions noted are these: Influenza B virus, MDCK, 96 h, strain B/Lee/40, MDCK cells, CPE inhibition at 4 days. The experiment is classed as cell-based. (In general: Protection from cytopathic effect is a common read-out in antiviral testing.)
For the compound `CN1CN(C23c4ccccc4CC2Cc2c3ccc(Cl)c2F)n2ccc(=O)c(O)c2C1=O` (stereo not drawn) [Compound A160], the concentration giving a half-maximal response (EC50) is below 125 nM.

The compound `O=C1c2c(O)c(=O)ccn2N(C23c4cccc(F)c4CC2Cc2c(F)cccc23)CN1CC1CC1` (stereo not drawn) [Compound A76] returned an EC50 below 125 nM.

For the compound `CCC12Cc3ccccc3C1(N1CN(C)C(=O)c3c(O)c(=O)ccn31)c1ccccc1C2` (stereo not drawn) [Compound A162], the EC50 was below 125 nM.

For `O=C1c2c(O)c(=O)ccn2N(C23c4ccccc4CC2Cc2c3ccc(F)c2F)CN1C1CC1` (stereo not drawn) [Compound A61], the EC50 was below 125 nM.

`CN1CN(C23c4ccccc4CC2(C)Cc2c3ccc(F)c2F)n2ccc(=O)c(O)c2C1=O` (stereo not drawn) [Compound A165] showed an EC50 below 125 nM.

In the case of `CC1N(CCF)C(=O)c2c(O)c(=O)ccn2N1C12c3ccccc3CC1Cc1c(F)cccc12` (stereo not drawn) [Compound A121], the EC50 was in the range of 125 to 250 nM.

On to `CCN1C(=O)c2c(O)c(=O)ccn2N(C23c4ccccc4CC2Cc2c(Cl)cccc23)C1C` (stereo not drawn) [Compound A95], for which the EC50 is below 125 nM.

`CC1N(CC(F)F)C(=O)c2c(O)c(=O)ccn2N1C12c3ccccc3CC1Cc1c(F)cccc12` (stereo not drawn) [Compound A139] came in with an EC50 of 125 to 250 nM.

`CCN1CN(C23c4cccc(C)c4CC2Cc2c(F)cccc23)n2ccc(=O)c(O)c2C1=O` (stereo not drawn) [Compound A66] returned an EC50 below 125 nM.

In turn, `O=C1c2c(O)c(=O)ccn2N(C23c4ccccc4CC2Cc2cc(F)c(F)cc23)CN1Cc1ccc(F)cc1` (stereo not drawn) [Compound A23, 1-(2,3-Difluoro-9a,10-dihydro-9H-indeno[1,2-a]inden-4b-yl)-3-(4-fluoro-benzyl)-5-hydroxy-2,3-dihydro-1H-pyrido[2,1-f][1,2,4]triazine-4,6-dione] came in with an EC50 of 250 to 375 nM.

The compound `Cc1cc(CN2CN(C34c5ccccc5CC3Cc3ccccc34)n3ccc(=O)c(O)c3C2=O)no1` (stereo not drawn) [Compound A144] returned an EC50 below 125 nM.

Regarding `CCN1CN(C23c4ccccc4CC2Cc2c3ccc(F)c2C)n2ccc(=O)c(O)c2C1=O` (stereo not drawn) [Compound A77], the concentration for a half-maximal effect (EC50) fell in the range of 125 to 250 nM.

Compound `CCN1CN(C23c4ccccc4CC2(C)Cc2c3ccc(F)c2F)n2ccc(=O)c(O)c2C1=O` (stereo not drawn) [Compound A164] showed a half-maximal effective concentration (EC50) below 125 nM.

For `CC(C)CN1C(=O)c2c(O)c(=O)ccn2N(C23c4ccccc4CC2Cc2c(Cl)cccc23)C1C` (stereo not drawn) [Compound A118], the EC50 lay in the range of 250 to 375 nM.

As for `CCN1CN(C23c4ccccc4CC2Cc2ccc(F)cc23)n2ccc(=O)c(O)c2C1=O` (stereo not drawn) [Compound A52], the EC50 is below 125 nM.

Take `CCN1C(=O)c2c(O)c(=O)ccn2N(C23c4ccccc4CC2Cc2c(F)cccc23)C1C` (stereo not drawn) [Compound A138]: the EC50 is below 125 nM.

Compound `CC1N(CC(F)F)C(=O)c2c(O)c(=O)ccn2N1C12c3ccccc3CC1Cc1c2ccc(F)c1F` (stereo not drawn) [Compound A136] came in with an EC50 of 250 to 375 nM.

In the case of `CCCN1C(=O)c2c(O)c(=O)ccn2N(C23c4ccccc4CC2Cc2c(Cl)cccc23)C1C` (stereo not drawn) [Compound A132], the EC50 fell in the range of 250 to 375 nM.

The compound `CC1N(C)C(=O)c2c(O)c(=O)ccn2N1C12c3ccccc3CC1Cc1c(Cl)cccc12` (stereo not drawn) [Compound A94] yielded an EC50 of 250 to 375 nM.

`CN1CN(C23c4ccccc4CC2Cc2c3ccc(Cl)c2Cl)n2ccc(=O)c(O)c2C1=O` (stereo not drawn) [Compound A146]: the EC50 is 125 to 250 nM.

For `O=C1c2c(O)c(=O)ccn2N(C23c4ccccc4CC2Cc2c3ccc(F)c2F)CN1Cc1ccccc1` (stereo not drawn) [Compound A11, 3-Benzyl-1-(1,2-difluoro-9a,10-dihydro-9H-indeno[1,2-a]inden-4b-yl)-5-hydroxy-2,3-dihydro-1H-pyrido[2,1-t][1,2,4]triazine-4,6-dione], the half-maximal effective concentration (EC50) fell in the range of 375 to 500 nM.

`CN1CN(C23c4ccccc4CC2Cc2cc(F)c(F)cc23)n2ccc(=O)c(O)c2C1=O` (stereo not drawn) [Compound A19, 1-(2,3-difluoro-9a,10-dihydroindeno[1,2-a]inden-4b(9H)-yl)-5-hydroxy-3-methyl-2,3-dihydro-1H-pyrido[2,1-f][1,2,4]triazine-4,6-dione] gave an EC50 of 250 to 375 nM.

As to `O=C1c2c(O)c(=O)ccn2N(C23c4ccccc4CC2Cc2c(Cl)cccc23)CN1C1CC1` (stereo not drawn) [Compound A93], the EC50 lay in the range of 125 to 250 nM.

As for `COCCN1CN(C23c4cccc(F)c4CC2Cc2c(F)cccc23)n2ccc(=O)c(O)c2C1=O` (stereo not drawn) [Compound A49], the EC50 was below 125 nM.

With `O=C1c2c(O)c(=O)ccn2N(C23c4cccc(F)c4CC2Cc2c(F)cccc23)CN1CC1CCOCC1` (stereo not drawn) [Compound A81], the concentration giving a half-maximal response (EC50) lay within 125 to 250 nM.

Compound `CC1N(C)C(=O)c2c(O)c(=O)ccn2N1C12c3cccc(F)c3CC1Cc1c(F)cccc12` (stereo not drawn) [Compound A73] showed an EC50 below 125 nM.

As for `O=C1c2c(O)c(=O)ccn2N(C23c4ccccc4CC2Cc2ccccc23)CN1Cc1ccccc1` (stereo not drawn) [Compound A4, 3-Benzyl-1-(9a,10-dihydro-9H-indeno[1,2-a]inden-4b-yl)-5-hydroxy-2,3-dihydro-1H-pyrido[2,1-f][1,2,4]triazine-4,6-dione], the EC50 is above 500 nM.

Consider `CN1C(=O)c2c(O)c(=O)ccn2N(C23c4cccc(F)c4CC2Cc2c(F)cccc23)C1CO` (stereo not drawn) [Compound A59], for which the EC50 is below 125 nM.

The compound `CCN1CN(C23c4ccccc4CC2Cc2c3ccc(F)c2F)n2ccc(=O)c(O)c2C1=O` (stereo not drawn) [Compound A14, 1-(1,2-Difluoro-9a,10-dihydro-9H-indeno[1,2-a]inden-4b-yl)-3-ethyl-5-hydroxy-2,3-dihydro-1H-pyrido[2,1-f][1,2,4]triazine-4,6-dione] displayed an EC50 of 125 to 250 nM.

As for `O=C1c2c(O)c(=O)ccn2N(C23c4ccccc4CC2Cc2c(Cl)cccc23)CN1CCF` (stereo not drawn) [Compound A111], the EC50 was in the range of 125 to 250 nM.

The compound `CN1CN(C23c4ccccc4CC2Cc2ccc(F)cc23)n2ccc(=O)c(O)c2C1=O` (stereo not drawn) [Compound A53] had a concentration for a half-maximal effect (EC50) below 125 nM.

The compound `O=C1c2c(O)c(=O)ccn2N(C23c4ccccc4CC2Cc2cc(F)c(F)cc23)CN1Cc1ccccc1` (stereo not drawn) [Compound A21, 3-benzyl-1-(2,3-difluoro-9a,10-dihydroindeno[1,2-a]inden-4b(9H)-yl)-5-hydroxy-2,3-dihydro-1H-pyrido[2,1-f][1,2,4]triazine-4,6-dione] returned an EC50 below 125 nM.

Take `CN1C(=O)c2c(O)c(=O)ccn2N(C23C(=Cc4c(F)cccc42)Cc2c(F)cccc23)C1CN` (stereo not drawn) [Compound A106, 2-(aminomethyl)-1-(1,8-difluoroindeno[1,2-a]inden-4b(9H)-yl)-5-hydroxy-3-methyl-2,3-dihydro-1H-pyrido[2,1-f][1,2,4]triazine-4,6-dione]: the EC50 is below 125 nM.

In turn, `O=C1c2c(O)c(=O)ccn2N(C23c4ccccc4CC2Cc2c(F)cccc23)CN1CCc1ccccc1` (stereo not drawn) [Compound A87] returned a half-maximal effective concentration (EC50) below 125 nM.

With `CCN1CN(C23c4ccccc4CC2(CC)Cc2c3ccc(F)c2F)n2ccc(=O)c(O)c2C1=O` (stereo not drawn) [Compound A56], the EC50 is below 125 nM.

The experiment is the same for the next values; noted with them: strain B/Lee/40, MDCK cells, CPE inhibition at 4 days.
Take `CCN1CN(C23c4ccccc4CC2Cc2c3ccc(F)c2F)n2ccc(=O)c(O)c2C1=O` (stereo not drawn) [Compound A45]: the EC50 is below 125 nM.

The compound `CN1CN(C23c4ccccc4CC2Cc2c3ccc(F)c2Cl)n2ccc(=O)c(O)c2C1=O` (stereo not drawn) [Compound A90] gave an EC50 below 125 nM.

`O=C1c2c(O)c(=O)ccn2N(C23c4ccccc4CC2Cc2c(Cl)cccc23)CN1CCF` (stereo not drawn) [Compound A114] showed an EC50 of 125 to 250 nM.

As to `CCN1CN(C23c4cccc(F)c4CC2Cc2c(F)cccc23)n2ccc(=O)c(O)c2C1=O` (stereo not drawn) [Compound A34], the EC50 is above 500 nM.
